In PubChem BioAssay AID248 (DTP/NCI, 2004):
“And” between values parts separate entries of the source, which are not always exact repeats. Equal values may be shown once. Inconclusive results and toxic doses are left out. Rule as the data show it: active = T/C of 150% or more; inactive = T/C below 125%.

Tested on: L1210 leukemia ip in BDF1 mice, survival T/C
Assay: NCI In Vivo Anticancer Drug Screen. Data for tumor model L1210 Leukemia (intraperitoneal) in B6D2F1 (BDF1) mice
Details: endpoint: mean survival time, higher = longer survival
Outline: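 Survival endpoint. Drug-treated group vs vehicle group, expressed as T divided by C. Tumor passaged by transplantation.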

[1] = dose: 100.0 mg/kg/injection, schedule: Q01DX009 (ip), vehicle: Klucel (hydroxypropylcellulose) (HPC)
[2] = dose: 100.0 mg/kg/injection, schedule: Q04DX002 (ip), vehicle: Klucel (hydroxypropylcellulose) (HPC)
[3] = dose: 200.0 mg/kg/injection, schedule: Q01DX009 (ip), vehicle: Klucel (hydroxypropylcellulose) (HPC)
[4] = dose: 200.0 mg/kg/injection, schedule: Q04DX002 (ip), vehicle: Klucel (hydroxypropylcellulose) (HPC)
[5] = dose: 400.0 mg/kg/injection, schedule: Q04DX002 (ip), vehicle: Klucel (hydroxypropylcellulose) (HPC)
[6] = dose: 25.0 mg/kg/injection, schedule: Q04DX002 (ip), vehicle: Klucel (hydroxypropylcellulose) (HPC)
[7] = dose: 50.0 mg/kg/injection, schedule: Q04DX002 (ip), vehicle: Klucel (hydroxypropylcellulose) (HPC)
[8] = dose: 100.0 mg/kg/injection, schedule: Q01DX001 (ip), vehicle: saline
[9] = dose: 200.0 mg/kg/injection, schedule: Q01DX001 (ip), vehicle: saline
[10] = dose: 400.0 mg/kg/injection, schedule: Q01DX001 (ip), vehicle: saline
[11] = dose: 400.0 mg/kg/injection, schedule: Q01DX009 (ip), vehicle: Klucel (hydroxypropylcellulose) (HPC)
[12] = dose: 100.0 mg/kg/injection, schedule: Q04DX002 (ip), vehicle: saline
[13] = dose: 100.0 mg/kg/injection, schedule: Q01DX001 (ip), vehicle: saline with Tween-80
[14] = dose: 100.0 mg/kg/injection, schedule: Q01DX009 (ip), vehicle: saline with Tween-80
[15] = dose: 100.0 mg/kg/injection, schedule: Q04DX002 (ip), vehicle: saline with Tween-80
[16] = dose: 100.0 mg/kg/injection, schedule: Q04DX003 (ip), vehicle: saline with Tween-80
[17] = dose: 200.0 mg/kg/injection, schedule: Q01DX001 (ip), vehicle: saline with Tween-80
[18] = dose: 200.0 mg/kg/injection, schedule: Q01DX009 (ip), vehicle: saline with Tween-80
[19] = dose: 200.0 mg/kg/injection, schedule: Q04DX002 (ip), vehicle: saline with Tween-80
[20] = dose: 200.0 mg/kg/injection, schedule: Q04DX003 (ip), vehicle: saline with Tween-80
[21] = dose: 400.0 mg/kg/injection, schedule: Q01DX001 (ip), vehicle: saline with Tween-80
[22] = dose: 400.0 mg/kg/injection, schedule: Q01DX009 (ip), vehicle: saline with Tween-80
[23] = dose: 400.0 mg/kg/injection, schedule: Q04DX002 (ip), vehicle: saline with Tween-80
[24] = dose: 400.0 mg/kg/injection, schedule: Q04DX003 (ip), vehicle: saline with Tween-80
[25] = dose: 12.5 mg/kg/injection, schedule: Q01DX009 (ip), vehicle: saline
[26] = dose: 25.0 mg/kg/injection, schedule: Q01DX009 (ip), vehicle: saline
[27] = dose: 100.0 mg/kg/injection, schedule: Q04DX003 (ip), vehicle: Klucel (hydroxypropylcellulose) (HPC)
[28] = dose: 200.0 mg/kg/injection, schedule: Q04DX003 (ip), vehicle: Klucel (hydroxypropylcellulose) (HPC)
[29] = dose: 400.0 mg/kg/injection, schedule: Q04DX003 (ip), vehicle: Klucel (hydroxypropylcellulose) (HPC)
[30] = dose: 75.0 mg/kg/injection, schedule: Q01DX001 (ip), vehicle: other
[31] = dose: 150.0 mg/kg/injection, schedule: Q01DX001 (ip), vehicle: other
[32] = dose: 300.0 mg/kg/injection, schedule: Q01DX001 (ip), vehicle: other

Measured: T/C

CC(=O)OCCOc1ccc(C(C)(C)C)cc1
inactive: dose: 50.0 mg/kg/injection, schedule: Q01DX009 (ip), vehicle: Klucel (hydroxypropylcellulose) (HPC) 100 % of control | [1] 86 % of control and 92 % of control | [2] 98 % of control | [3] 111 % of control | [4] 102 % of control | dose: 225.0 mg/kg/injection, schedule: Q01DX Z (ip), vehicle: carboxymethylcellulose (CMC) 95 % of control | [5] 115 % of control | dose: 450.0 mg/kg/injection, schedule: Q01DX Z (ip), vehicle: carboxymethylcellulose (CMC) 102 % of control

COC1OC2COC(c3ccccc3)OC2C(OC)C1O (stereo unspecified)
inactive: dose: 12.5 mg/kg/injection, schedule: Q04DX002 (ip), vehicle: Klucel (hydroxypropylcellulose) (HPC) 103 % of control | [6] 100 % of control | [7] 100 % of control

O=C(OCc1ccccc1CN1CCOCC1)c1ccccc1
inactive: [2] 98 % of control | [4] 105 % of control | [5] 96 % of control

Clc1cccc(N2CCN(c3c4c(nc5ccccc35)CCCCC4)CC2)c1
inactive: [8] 93 % of control | [9] 88 % of control | [10] 90 % of control

O=S(=O)(c1ccccc1)N1CN(S(=O)(=O)c2ccccc2)CN(S(=O)(=O)c2ccccc2)C1
inactive: [2] 93 % of control | [4] 100 % of control | [5] 96 % of control

Nc1nc(NCCCc2ccccc2)cc(=O)[nH]1
inactive: dose: 25.0 mg/kg/injection, schedule: Q04DX003 (ip), vehicle: saline with Tween-80 98 % of control | dose: 50.0 mg/kg/injection, schedule: Q04DX003 (ip), vehicle: saline with Tween-80 92 % of control

O=C(O)COc1cc(Cl)ccc1Cl
inactive: [2] 95 % of control | [4] 95 % of control | [5] 100 % of control

O=C(O)/C=C/c1ccccc1Br
inactive: dose: 50.0 mg/kg/injection, schedule: Q01DX001 (ip), vehicle: saline 97 % of control | [8] 91 % of control | [1] 102 % of control | [9] 94 % of control | [3] 100 % of control | [10] 97 % of control | [11] 100 % of control

O=C(CCl)NP(=O)(O)O
inactive: dose: 25.0 mg/kg/injection, schedule: Q04DX002 (ip), vehicle: saline 97 % of control | dose: 50.0 mg/kg/injection, schedule: Q04DX002 (ip), vehicle: saline 102 % of control | [12] 102 % of control

C=CCc1ccc(OC(=O)Nc2cc(Cl)ccc2C)c(OC)c1
inactive: [13] 93 % of control | [14] 106 % of control and 87 % of control | [15] 101 % of control and 92 % of control | [16] 103 % of control | [17] 97 % of control | [18] 101 % of control and 87 % of control | [19] 95 % of control and 97 % of control | [20] 101 % of control | [21] 92 % of control | [22] 101 % of control and 102 % of control | [23] 95 % of control and 98 % of control | [24] 101 % of control

Nc1ccccc1CCc1ccccc1
inactive: [2] 103 % of control | [4] 100 % of control | [5] 100 % of control

O=C(/C=C/c1cccc([N+](=O)[O-])c1)Nc1cccc(S(=O)(=O)F)c1
inactive: [14] 89 % of control | [18] 96 % of control | [22] 97 % of control

Cc1c(Cl)cccc1NC(=O)OCCCc1ccccc1
inactive: [13] 93 % of control | [14] 101 % of control and 104 % of control | [15] 96 % of control and 108 % of control | [16] 102 % of control | [17] 93 % of control | [18] 93 % of control and 96 % of control | [19] 108 % of control and 121 % of control | [20] 89 % of control | [21] 90 % of control | [22] 98 % of control and 90 % of control | [23] 97 % of control and 101 % of control | [24] 91 % of control

C[N+]1(C)CCC2=CC3C=CC2C1C=C3 (stereo unspecified)
inactive: [25] 95 % of control | [26] 93 % of control | dose: 50.0 mg/kg/injection, schedule: Q01DX009 (ip), vehicle: saline 90 % of control

Cc1ccc(NC(=O)c2ccccc2C(=O)O)cc1Cl
inactive: [1] 93 % of control | [27] 96 % of control | [3] 98 % of control | [28] 93 % of control | [11] 95 % of control | [29] 96 % of control

CSCCSc1ncnc2nc[nH]c12
inactive: [16] 107 % of control | [20] 102 % of control | [24] 101 % of control

CN(C)c1ccc(/C=C2\N=C(c3ccc([N+](=O)[O-])cc3)OC2=O)cc1
inactive: [1] 96 % of control | [3] 101 % of control | [11] 93 % of control

O=C(c1ccccc1)c1cccnc1
inactive: [16] 101 % of control | [20] 101 % of control | [24] 104 % of control

O=C1NC(c2cccs2)N2C(=O)NC(c3cccs3)N12 (stereo unspecified)
inactive: dose: 100.0 mg/kg/injection, schedule: Q04DX002 (ip), vehicle: gum acacia 105 % of control | dose: 200.0 mg/kg/injection, schedule: Q04DX002 (ip), vehicle: gum acacia 109 % of control | dose: 400.0 mg/kg/injection, schedule: Q04DX002 (ip), vehicle: gum acacia 112 % of control

CCN(CC)CCOC(=O)c1cccc2[nH]ccc12
inactive: dose: 100.0 mg/kg/injection, schedule: Q04DX003 (ip), vehicle: saline 104 % of control | dose: 200.0 mg/kg/injection, schedule: Q04DX003 (ip), vehicle: saline 109 % of control

COC(=O)c1ccc(OC(=S)N(C)C)cc1
inactive: [27] 93 % of control | [28] 98 % of control | [29] 95 % of control

O=C1NC(=O)/C(=C/c2ccco2)N1
inactive: [27] 103 % of control | [28] 90 % of control

C/C=C/C=C\COC(=O)CC
inactive: [12] 103 % of control | dose: 200.0 mg/kg/injection, schedule: Q04DX002 (ip), vehicle: saline 100 % of control | dose: 400.0 mg/kg/injection, schedule: Q04DX002 (ip), vehicle: saline 103 % of control

N#CC(NC(=O)c1ccccc1)SCc1ccccc1 (stereo unspecified)
inactive: [6] 107 % of control | [7] 91 % of control | [2] 91 % of control

O=[N+]([O-])c1ccc(C[Se]c2ncnc3c2ccn3C2OC(CO)C(O)C2O)cc1 (stereo unspecified)
inactive: dose: 6.25 mg/kg/injection, schedule: Q01DX009 (ip), vehicle: saline 95 % of control | dose: 12.5 mg/kg/injection, schedule: Q01DX005 (ip), vehicle: saline 102 % of control | [25] 91 % of control | dose: 25.0 mg/kg/injection, schedule: Q01DX005 (ip), vehicle: saline 105 % of control | [26] 102 % of control

CCCc1nc2ccccc2c(=O)n1/N=C/c1ccc(OC)cc1
inactive: [2] 96 % of control | [4] 99 % of control | [5] 101 % of control

CC(=O)Nc1ccccc1C(C#N)Cc1ccccc1 (stereo unspecified)
inactive: [30] 96 % of control | [31] 101 % of control | [32] 101 % of control

O=[N+]([O-])c1cc(Cl)ccc1S(=O)(=O)F
inactive: dose: 100.0 mg/kg/injection, schedule: Q04DX003 (ip), vehicle: carboxymethylcellulose (CMC) 103 % of control | dose: 200.0 mg/kg/injection, schedule: Q04DX003 (ip), vehicle: carboxymethylcellulose (CMC) 94 % of control

c1ccc2nc3nc4ccccc4nc3nc2c1
inactive: dose: 5.0 mg/kg/injection, schedule: Q04DX002 (ip), vehicle: gum acacia 90 % of control | dose: 10.0 mg/kg/injection, schedule: Q04DX002 (ip), vehicle: gum acacia 93 % of control | dose: 20.0 mg/kg/injection, schedule: Q04DX002 (ip), vehicle: gum acacia 93 % of control and 94 % of control | [30] 102 % of control | [15] 106 % of control | [31] 98 % of control | [19] 100 % of control | [32] 103 % of control | [23] 91 % of control
